# Source: patent US6251894A, “1-(1,2-disubstituted piperidinyl)-4 (fused imidazole)-piperidine derivatives” (Janssen Pharmaceuticals N.V., priority 1995, dated 2001)
# Like-named read-outs stand apart in the source and are kept apart here.
# Tests used:
# [1] = system: Substance P Induced Relaxation of the Pig Coronary Arteries; assay: Antagonism of substance P induced relaxation of the pig coronary arteries; conditions: 30 min incubation
# Method: Antagonism of Substance P Induced Relaxation of the Pig Coronary Arteries
# Segments of coronary arteries taken from pigs (killed by injection of an overdose of sodium pentobarbital) were inverted and mounted for recording of isometric tension in organ baths (volume 20 ml) with the endothelium at the outside. The preparations were bathed in Krebs-Henseleit solution. The solution was kept at 37° C. and gassed with a mixture of O2 /CO2 (95/5). After stabilisation of the preparations, prostaglandin F2α (10^-5 M) was administered to induce a contraction. This was repeated until contractile responses became stable. Then prostaglandin F2α was again administered and substance P (3×10^-10 M and 10^-9 M cumulatively) was added. Substance P induced endothelium dependent relaxations. After washing away the agonists, a known concentration of a compound of formula (I) was added. After an incubation period of 30 minutes, prostaglandin F2α (10^-5 M) and the same concentrations of substance P as described above were again administered in the presence of the compound to be tested.
# [2] = system: Substance P Induced Plasma Extravasation; assay: Antagonism of substance P induced plasma extravasation in guinea-pigs; format: in vivo, guinea-pig; conditions: Cavia porcellus, sc, s.c., 1 hour prior to substance P
# Method: Antagonism of Substance P Induced Plasma Extravasation in Guinea-pigs
# Plasma travasation was induced by injection of substance P (2 mg/kg) in the femoral artery of female guinea-pigs. Evans Blue dye (30 mg/kg) was injected simultaneously. The test compound or solvent was administered subcutaneous (s.c.) or orally (p.o.) 1 hour prior to substance P injection. 10 minutes after challenge, the animals were checked for blue colouring (a direct measure for plasma extravasation) of the nose, the forepaws, and the conjunctiva. 30 minutes after challenge, the animals were sacrificed by CO2 gas inhalation and checked for blue colouring of the trachea and the urinary bladder. […]
# [3] = test compound concentration 3 × 10^-9 (unit not given)
# [4] = 10 min, conjunctiva, read-out: lowest active dose (LAD), conjunctiva
# [5] = 10 min, forepaws, read-out: lowest active dose (LAD), forepaws
# [6] = 10 min, nose, read-out: lowest active dose (LAD), nose
# [7] = 0.5 h, trachea, read-out: lowest active dose (LAD), trachea
# [8] = 0.5 h, urinary bladder, read-out: lowest active dose (LAD), urinary bladder
# [9] = test compound concentration 3 × 10^-8 (unit not given)
SMILES,"% inhibition of the response to 10^-9 M substance P [1, 3]",also measured
Cc1cnc2n1CCc1ccccc1C2=C1CCN([C@H]2CCN(C(=O)c3cc(C(F)(F)F)cc(C(F)(F)F)c3)[C@H](Cc3ccccc3)C2)CC1 (relative stereo) [Compound 54],69.8%,"minimal effective dose [2, 4]: 2.5 mg/kg; minimal effective dose [2, 5]: 2.5 mg/kg; minimal effective dose [2, 6]: 2.5 mg/kg; minimal effective dose [2, 7]: 2.5 mg/kg; minimal effective dose [2, 8]: 2.5 mg/kg"
"O=C(c1cc(C(F)(F)F)cc(C(F)(F)F)c1)N1CC[C@H](N2CCC(=C3c4ccccc4CCn4c(CO)cnc43)CC2)C[C@@H]1Cc1ccccc1 (racemic) [Compound 4, (±)-cis-1-[3,5-bis(trifluoromethyl)benzoyl]-4-[4-[5,6-dihydro-3-(hydroxymethyl)-11H-imidazo[2,1-b][3]benzazepin-11-ylidene]-1-piperidinyl]-2-(phenylmethyl)piperidine]",–,"% inhibition of the response to 10^-9 M substance P [1, 9]: 97.0%; minimal effective dose [2, 4]: 10 mg/kg; minimal effective dose [2, 5]: 10 mg/kg; minimal effective dose [2, 6]: 10 mg/kg; minimal effective dose [2, 7]: 10 mg/kg; minimal effective dose [2, 8]: 10 mg/kg"
"Cn1ccc2c1CCn1ccnc1C2=C1CCN([C@@H]2CCN(C(=O)c3cc(C(F)(F)F)cc(C(F)(F)F)c3)[C@@H](Cc3ccccc3)C2)CC1 (racemic) [Compound 2, (±)-trans-1-[3,5-bis(trifluoromethyl)benzoyl]-4-[4-(5,6,7,10-tetrahydro-7-methylimidazo[1,2-a]pyrrolo[3,2-d]azepin-10-ylidene)-1-piperidinyl]-2-(phenylmethyl)piperidine]",–,"% inhibition of the response to 10^-9 M substance P [1, 9]: 96.5%; minimal effective dose [2, 4]: 0.16 mg/kg; minimal effective dose [2, 5]: 0.16 mg/kg; minimal effective dose [2, 6]: 0.16 mg/kg; minimal effective dose [2, 7]: 2.5 mg/kg; minimal effective dose [2, 8]: 2.5 mg/kg"
O=C(c1cc(C(F)(F)F)cc(C(F)(F)F)c1)N1CCC(N2CCC(C3c4ccccc4CCn4c3nc3ccccc34)CC2)CC1Cc1ccccc1 (stereo not shown) [Compound 12],–,"% inhibition of the response to 10^-9 M substance P [1, 9]: 93.2%"
Cc1ccc2c(c1)CCn1ccnc1C2=C1CCN([C@H]2CCN(C(=O)c3cc(C(F)(F)F)cc(C(F)(F)F)c3)[C@@H](Cc3ccccc3)C2)CC1 (relative stereo) [Compound 50],25%,–
O=C(c1ccc2ccccc2c1)N1CC[C@@H](N2CCC(=C3c4ccccc4CCn4ccnc43)CC2)C[C@@H]1Cc1ccccc1 (relative stereo) [Compound 78],7.5%,–
O=C(c1cc(C(F)(F)F)cc(C(F)(F)F)c1)N1CCC(N2CCC(C3c4ccccc4CCn4c3nc3ccccc34)CC2)CC1Cc1ccc(Cl)c(Cl)c1 (stereo not shown) [Compound 64],26.4%,–
O=C(c1cc2ccccc2s1)N1CCC(N2CCC(C3c4ccccc4Cn4c3nc3ccccc34)CC2)CC1Cc1ccccc1 (stereo not shown) [Compound 94],8.2%,–
O=C(c1cc(C(F)(F)F)cc(C(F)(F)F)c1)N1CCC(N2CCC(C3c4ccccc4Cn4ccnc43)CC2)CC1Cc1ccccc1 (stereo not shown) [Compound 115],60.2%,–
Cc1cc(C)cc(C(=O)N2CCC(N3CCC(=C4c5ccn(C)c5CCn5cc(C)nc54)CC3)CC2Cc2ccccc2)c1 (stereo not shown) [Compound 30],15.3%,–
Cc1cc(C(=O)N2CC[C@@H](N3CCC(C4c5ccccc5Cn5c4nc4ccccc45)CC3)C[C@@H]2Cc2ccccc2)no1 (stereo partly shown) [Compound 97],5.8%,–
O=C(c1ccc2ccccc2c1)N1CC[C@@H](N2CCC(C3c4ccccc4Cn4c3nc3ccccc34)CC2)C[C@@H]1Cc1ccccc1 (stereo partly shown) [Compound 98],23.2%,–
O=C(c1ccc(Cl)c(Cl)c1)N1CC[C@@H](N2CCC(C3c4ccccc4Cn4c3nc3ccccc34)CC2)C[C@@H]1Cc1ccccc1 (stereo partly shown) [Compound 103],8.3%,–
Cc1cc(C)cc(C(=O)N2CC[C@H](N3CCC(=C4c5ccsc5CCn5ccnc54)CC3)C[C@@H]2Cc2ccccc2)c1 (relative stereo) [Compound 38],27.1%,–
O=C(c1cc(C(F)(F)F)cc(C(F)(F)F)c1)N1CC[C@H](N2CCC(=C3c4ccccc4CCn4c3nc(CO)c4CO)CC2)C[C@H]1Cc1ccccc1 (relative stereo) [Compound 49],52.5%,–
O=C(c1ccccc1)N1CCC(N2CCC(C3c4ccccc4Cn4c3nc3ccccc34)CC2)CC1Cc1ccccc1 (stereo not shown) [Compound 73],2.8%,–
O=C(c1cc(Cl)cc(Cl)c1)N1CC[C@H](N2CCC(=C3c4ccccc4CCn4ccnc43)CC2)C[C@H]1Cc1ccccc1 (relative stereo) [Compound 48],59.7%,–

SMILES,"% inhibition of the response to 10^-9 M substance P [1, 3]",also measured
Cc1cc(C)cc(C(=O)N2CC[C@@H](N3CCC(C4c5ccccc5Cn5ccnc54)CC3)C[C@@H]2Cc2ccccc2)c1 (stereo partly shown) [Compound 109],13.5%,–
O=C(c1cccc(C(F)(F)F)c1)N1CCC(N2CCC(C3c4ccccc4Cn4c3nc3ccccc34)CC2)CC1Cc1ccccc1 (stereo not shown) [Compound 74],8.6%,–
Cc1cn2c(n1)C(=C1CCN([C@H]3CCN(C(=O)c4cc(C(F)(F)F)cc(C(F)(F)F)c4)[C@@H](Cc4ccccc4)C3)CC1)c1ccn(C)c1CC2 (relative stereo) [Compound 59],76.5%,–
O=C(c1cc(C(F)(F)F)cc(C(F)(F)F)c1)N1CCC(N2CCC(C3c4ccccc4CCn4c3nc3ccccc34)CC2)CC1Cc1ccc(F)c(F)c1 (stereo not shown) [Compound 67],64.4%,–
Cc1cc(C)cc(C(=O)N2CC[C@H](N3CCC(C4c5ccccc5CCn5c4nc4ccccc45)CC3)C[C@H]2Cc2ccccc2)c1 (stereo partly shown) [Compound 66],56.6%,–
O=C(Nc1cc(C(F)(F)F)cc(C(F)(F)F)c1)N1CC[C@@H](N2CCC(C3c4ccccc4Cn4c3nc3ccccc34)CC2)C[C@@H]1Cc1ccccc1 (stereo partly shown) [Compound 100],13.9%,–
O=C(c1ccc2ccccc2c1)N1CC[C@H](N2CCC(=C3c4ccccc4CCn4ccnc43)CC2)C[C@@H]1Cc1ccccc1 (relative stereo) [Compound 84],2.4%,–
Cc1cn2c(n1)C(=C1CCN([C@H]3CCN(C(=O)c4cc(C(F)(F)F)cc(C(F)(F)F)c4)[C@H](Cc4ccccc4)C3)CC1)c1ccn(C)c1CC2 (relative stereo) [Compound 60],89.9%,–
COC(=O)c1cnc2n1CCc1ccsc1C2=C1CCN([C@@H]2CCN(C(=O)c3cc(C)cc(C)c3)[C@@H](Cc3ccccc3)C2)CC1 (relative stereo) [Compound 36],23.7%,–
O=C(c1cnc2ccccc2n1)N1CCC(N2CCC(C3c4ccccc4Cn4c3nc3ccccc34)CC2)CC1Cc1ccccc1 (stereo not shown) [Compound 93],3.1%,–
Cc1cc(C)cc(C(=O)N2CCC(N3CCC(C4c5ccccc5CCn5c4nc4ccccc45)CC3)CC2Cc2ccccc2)c1 (stereo not shown) [Compound 65],27.3%,–
CC(C(=O)N1CC[C@@H](N2CCC(C3c4ccccc4Cn4c3nc3ccccc34)CC2)C[C@@H]1Cc1ccccc1)c1ccccc1 (stereo partly shown) [Compound 99],18.2%,–
O=C(c1cc(C(F)(F)F)cc(C(F)(F)F)c1)N1CC[C@@H](N2CCC(=C3c4sccc4CCn4ccnc43)CC2)C[C@H]1Cc1ccccc1 (relative stereo) [Compound 6],–,"% inhibition of the response to 10^-9 M substance P [1, 9]: 93.9%"
Cc1cc(C)cc(C(=O)N2CCC(N3CCC(=C4c5ccc(Cl)cc5CCn5ccnc54)CC3)CC2Cc2ccccc2)c1 (stereo not shown) [Compound 31],82.7%,–
Cc1cc(C)cc(C(=O)N2CCC(N3CCC(=C4c5ccccc5OCn5ccnc54)CC3)CC2Cc2ccccc2)c1 (stereo not shown) [Compound 104],83.0%,–
O=C(c1ccc2ncsc2c1)N1CCC(N2CCC(C3c4ccccc4Cn4c3nc3ccccc34)CC2)CC1Cc1ccccc1 (stereo not shown) [Compound 96],17.3%,–
Cc1cc(C)cc(C(=O)N2CC[C@H](N3CCC(=C4c5ccc(C)cc5CCn5ccnc54)CC3)C[C@H]2Cc2ccccc2)c1 (relative stereo) [Compound 57],66.7%,–
